Data on 1 compound can be found in paper PMC5218480 (PLoS ONE, 2017).

The test system of the test is MV-4-11 cells. Put plainly: Gene expression microarray analysis (Affymetrix PrimeView) and GSEA. It is filed as cell-based, human. Also noted: RFU PODN (11730768_x_at) / Fold change /veh PODN (11730768_x_at) / RFU LINC00158 (11744669_a_at) / Fold change /veh LINC00158 (11744669_a_at) / RFU DUSP10 (11751237_a_at) / Fold change /veh DUSP10 (11751237_a_at) / RFU ID3 (11757404_x_at) / Fold change /veh ID3 (11757404_x_at) / RFU PLEKHG5 (11737974_s_at) / Fold change /veh PLEKHG5 (11737974_s_at) / RFU LRRC4B (11730491_at) / Fold change /veh LRRC4B (11730491_at) / RFU GIMAP4 (11747438_a_at) / Fold change /veh GIMAP4 (11747438_a_at) / RFU KRT8 (11758183_x_at) / Fold change /veh KRT8 (11758183_x_at) / RFU CNN1 (11734310_a_at) / Fold change /veh CNN1 (11734310_a_at) / RFU VPS37D (11726825_at) / Fold change /veh VPS37D (11726825_at) / RFU C10orf10 (11716522_x_at) / Fold change /veh C10orf10 (11716522_x_at) / RFU KIR2DL2 /// KIR2DL4 /// KIR2DL5A /// KIR2DL5B /// KIR2DS1 /// KIR2DS2 /// KIR2DS3 /// KIR2DS4 /// KIR3DL3 /// KIR3DL3 /// KIR3DS1 (11738374_at) / Fold change /veh KIR2DL2 /// KIR2DL4 /// KIR2DL5A /// KIR2DL5B /// KIR2DS1 /// KIR2DS2 /// KIR2DS3 /// KIR2DS4 /// KIR3DL3 /// KIR3DL3 /// KIR3DS1 (11738374_at) / RFU C1QL1 (11718748_at) / Fold change /veh C1QL1 (11718748_at) / RFU TMPRSS4 (11747572_a_at) / Fold change /veh TMPRSS4 (11747572_a_at) / RFU HAMP (11756126_x_at) / Fold change /veh HAMP (11756126_x_at) / RFU RNFT2 (11725882_a_at) / Fold change /veh RNFT2 (11725882_a_at) / RFU NR4A2 (11747474_a_at) / Fold change /veh NR4A2 (11747474_a_at) / RFU ABCC12 (11746883_a_at) / Fold change /veh ABCC12 (11746883_a_at) / RFU TMEM136 (11760407_x_at) / Fold change /veh TMEM136 (11760407_x_at) / RFU CLDN22 /// WWC2 (11732394_at) / Fold change /veh CLDN22 /// WWC2 (11732394_at) / RFU HLA-DPB1 (11760878_x_at) / Fold change /veh HLA-DPB1 (11760878_x_at) / RFU SPINT1 (11716480_a_at) / Fold change /veh SPINT1 (11716480_a_at) / RFU GAP43 (11754022_s_at) / Fold change /veh GAP43 (11754022_s_at) / RFU A4GNT (11735810_at) / Fold change /veh A4GNT (11735810_at) / RFU PRB3 (11715151_x_at) / Fold change /veh PRB3 (11715151_x_at) / RFU TUBB4B (11761932_at) / Fold change /veh TUBB4B (11761932_at) / RFU CAPN14 (11732068_a_at) / Fold change /veh CAPN14 (11732068_a_at) / RFU TMCC2 (11721928_a_at) / Fold change /veh TMCC2 (11721928_a_at) / RFU IRGQ (11745062_a_at) / Fold change /veh IRGQ (11745062_a_at) / RFU FAM174B (11720279_a_at) / Fold change /veh FAM174B (11720279_a_at) / RFU TMPRSS4 (11748680_a_at) / Fold change /veh TMPRSS4 (11748680_a_at) / RFU FAM212B (11763350_a_at) / Fold change /veh FAM212B (11763350_a_at) / RFU PLEKHG5 (11743358_a_at) / Fold change /veh PLEKHG5 (11743358_a_at) / RFU ZSCAN30 (11745921_a_at) / Fold change /veh ZSCAN30 (11745921_a_at) / RFU CMKLR1 (11741424_a_at) / Fold change /veh CMKLR1 (11741424_a_at) / RFU LOC101060620 /// MAPK8IP1 (11723275_at) / Fold change /veh LOC101060620 /// MAPK8IP1 (11723275_at) / RFU SPTSSB (11747773_x_at) / Fold change /veh SPTSSB (11747773_x_at) / RFU PRSS12 (11739890_at) / Fold change /veh PRSS12 (11739890_at) / RFU BIN1 (11741810_x_at) / Fold change /veh BIN1 (11741810_x_at) / RFU WNT11 (11732464_a_at) / Fold change /veh WNT11 (11732464_a_at) / RFU C10orf10 (11716521_a_at) / Fold change /veh C10orf10 (11716521_a_at) / RFU C5orf56 (11738089_at) / Fold change /veh C5orf56 (11738089_at) / RFU CYB561 (11721691_x_at) / Fold change /veh CYB561 (11721691_x_at) / RFU ANKRD19P (11752326_a_at) / Fold change /veh ANKRD19P (11752326_a_at) / RFU OR2T12 /// OR2T33 /// OR2T8 (11738714_s_at) / Fold change /veh OR2T12 /// OR2T33 /// OR2T8 (11738714_s_at) / RFU VCAN (11748164_a_at) / Fold change /veh VCAN (11748164_a_at) / RFU JSRP1 (11732532_at) / Fold change /veh JSRP1 (11732532_at) / RFU KRTAP10-11 (11738290_x_at) / Fold change /veh KRTAP10-11 (11738290_x_at) / RFU MYO3A (11730013_a_at) / Fold change /veh MYO3A (11730013_a_at) / RFU EBF3 (11725865_a_at) / Fold change /veh EBF3 (11725865_a_at) / RFU CAMK2N1 (11719241_x_at) / Fold change /veh CAMK2N1 (11719241_x_at) / RFU C5orf56 (11738088_a_at) / Fold change /veh C5orf56 (11738088_a_at) / RFU OLFML3 (11715873_a_at) / Fold change /veh OLFML3 (11715873_a_at) / RFU LOC100653217 /// NTM (11731650_a_at) / Fold change /veh LOC100653217 /// NTM (11731650_a_at) / RFU MAPK11 (11762145_a_at) / Fold change /veh MAPK11 (11762145_a_at) / RFU FIZ1 (11724087_x_at) / Fold change /veh FIZ1 (11724087_x_at) / RFU OASL (11726364_x_at) / Fold change /veh OASL (11726364_x_at) / RFU SOX15 (11748057_x_at) / Fold change /veh SOX15 (11748057_x_at) / RFU CD79A (11719716_a_at) / Fold change /veh CD79A (11719716_a_at) / RFU HIST1H1D (11736915_at) / Fold change /veh HIST1H1D (11736915_at) / RFU CASKIN2 (11723855_a_at) / Fold change /veh CASKIN2 (11723855_a_at) / RFU LOC730098 (11760151_x_at) / Fold change /veh LOC730098 (11760151_x_at) / RFU OR4N2 (11742367_at) / Fold change /veh OR4N2 (11742367_at) / RFU PRRT2 (11749266_a_at) / Fold change /veh PRRT2 (11749266_a_at) / RFU SNX32 (11753110_a_at) / Fold change /veh SNX32 (11753110_a_at) / RFU CDHR5 (11726645_a_at) / Fold change /veh CDHR5 (11726645_a_at) / RFU RCAN1 (11760418_a_at) / Fold change /veh RCAN1 (11760418_a_at) / RFU FAM167A (11723789_a_at) / Fold change /veh FAM167A (11723789_a_at) / RFU FAM26E (11764081_at) / Fold change /veh FAM26E (11764081_at) / RFU ISYNA1 (11749810_s_at) / Fold change /veh ISYNA1 (11749810_s_at) / RFU ACY1 (11761880_at) / Fold change /veh ACY1 (11761880_at) / RFU 11764098_at / Fold change /veh 11764098_at / RFU SAMD14 (11745864_x_at) / Fold change /veh SAMD14 (11745864_x_at) / RFU NPB (11741838_a_at) / Fold change /veh NPB (11741838_a_at) / RFU TMPRSS6 (11731388_a_at) / Fold change /veh TMPRSS6 (11731388_a_at) / RFU KRTAP10-2 (11738614_at) / Fold change /veh KRTAP10-2 (11738614_at) / RFU ARHGAP8 /// PRR5-ARHGAP8 (11727945_x_at) / Fold change /veh ARHGAP8 /// PRR5-ARHGAP8 (11727945_x_at) / RFU KRTAP5-7 /// NADSYN1 (11734609_at) / Fold change /veh KRTAP5-7 /// NADSYN1 (11734609_at) / RFU RASL12 (11751679_a_at) / Fold change /veh RASL12 (11751679_a_at) / RFU CDKN2B (11736163_a_at) / Fold change /veh CDKN2B (11736163_a_at) / RFU PRF1 (11729649_at) / Fold change /veh PRF1 (11729649_at) / RFU, ZNF638 /// ZNF638-IT1 / Fold change vs veh, ZNF638 /// ZNF638-IT1 / RFU, PANK3 / Fold change vs veh, PANK3 / RFU, SH3YL1 / Fold change vs veh, SH3YL1 / RFU, ZEB2 / Fold change vs veh, ZEB2 / RFU, NRIP1 / Fold change vs veh, NRIP1 / RFU, PTTG1IP / Fold change vs veh, PTTG1IP / RFU, CAPN2 / Fold change vs veh, CAPN2 / RFU, MED14 / Fold change vs veh, MED14 / RFU, SNORA58 / Fold change vs veh, SNORA58 / RFU, C1orf63 / Fold change vs veh, C1orf63 / RFU, LRRFIP1 / Fold change vs veh, LRRFIP1 / RFU, NDUFAF7 / Fold change vs veh, NDUFAF7 / RFU, SLC12A2 / Fold change vs veh, SLC12A2 / RFU, IBTK / Fold change vs veh, IBTK / RFU, ESF1 / Fold change vs veh, ESF1 / Fold change vs veh, TMEM50B / RFU, TAOK1 / Fold change vs veh, TAOK1 / RFU, ACBD3 / Fold change vs veh, ACBD3 / RFU, TMA16 / Fold change vs veh, TMA16 / RFU, RWDD3 / Fold change vs veh, RWDD3 / RFU, BCAT1 / Fold change vs veh, BCAT1 / RFU, EDEM3 / Fold change vs veh, EDEM3 / RFU, TMEM33 / Fold change vs veh, TMEM33 / RFU, WDR75 / Fold change vs veh, WDR75 / RFU, AHCTF1 / Fold change vs veh, AHCTF1 / RFU, TFRC / Fold change vs veh, TFRC / RFU, ZDHHC17 / Fold change vs veh, ZDHHC17 / RFU, NOM1 / Fold change vs veh, NOM1 / RFU, ARL8B / Fold change vs veh, ARL8B / RFU, ZBTB11 / Fold change vs veh, ZBTB11 / RFU, TAMM41 / Fold change vs veh, TAMM41 / RFU, KIAA1704 /// LOC100996395 / Fold change vs veh, KIAA1704 /// LOC100996395 / RFU, ING1 / Fold change vs veh, ING1 / RFU, TRMT61B / Fold change vs veh, TRMT61B / RFU, FUBP3 / Fold change vs veh, FUBP3 / RFU, TP53 / Fold change vs veh, TP53 / RFU, TNKS2 / Fold change vs veh, TNKS2 / RFU, ZFP14 / Fold change vs veh, ZFP14 / RFU, ACTR2 / Fold change vs veh, ACTR2 / RFU, PPP3R1 / Fold change vs veh, PPP3R1 / RFU, PIK3R1 / Fold change vs veh, PIK3R1 / RFU, HNRNPA1 / Fold change vs veh, HNRNPA1 / RFU, RNF170 / Fold change vs veh, RNF170 / RFU, ZNF28 / Fold change vs veh, ZNF28 / RFU, RNGTT / Fold change vs veh, RNGTT / RFU, OGT / Fold change vs veh, OGT / RFU, BRD1 / Fold change vs veh, BRD1 / RFU, MARS / Fold change vs veh, MARS / RFU, ZNF655 / Fold change vs veh, ZNF655 / RFU, FAHD1 / Fold change vs veh, FAHD1 / RFU, BDP1 / Fold change vs veh, BDP1 / RFU, LRRCC1 / Fold change vs veh, LRRCC1 / RFU, ARID1A / Fold change vs veh, ARID1A / RFU, ZNF146 / Fold change vs veh, ZNF146 / RFU, ZNF330 / Fold change vs veh, ZNF330 / RFU, GPN3 / Fold change vs veh, GPN3 / RFU, C9orf123 / Fold change vs veh, C9orf123 / RFU, N4BP2L2 / Fold change vs veh, N4BP2L2 / RFU, ARFIP1 / Fold change vs veh, ARFIP1 / RFU, FAM179B / Fold change vs veh, FAM179B / RFU, BCL10 / Fold change vs veh, BCL10 / RFU, UHRF1BP1L / Fold change vs veh, UHRF1BP1L / RFU, BET1 / Fold change vs veh, BET1 / RFU, CNOT2 / Fold change vs veh, CNOT2 / RFU, ZNF268 / Fold change vs veh, ZNF268 / Fold change vs veh, ZNF507 / RFU, DGCR2 / Fold change vs veh, DGCR2 / RFU, WDSUB1 / Fold change vs veh, WDSUB1 / Fold change vs veh, HSP90B1 /// MIR3652 / RFU, ADSS / Fold change vs veh, ADSS / RFU, GK / Fold change vs veh, GK / RFU, ZNF148 / Fold change vs veh, ZNF148 / RFU, TAF9 / Fold change vs veh, TAF9 / RFU, SLC1A5 / Fold change vs veh, SLC1A5 / RFU, SLMO2 / Fold change vs veh, SLMO2 / RFU, ABCC4 / Fold change vs veh, ABCC4 / RFU, LOC101060439 /// RAP1B / Fold change vs veh, LOC101060439 /// RAP1B / RFU, RFX7 / Fold change vs veh, RFX7 / RFU, GTPBP10 / Fold change vs veh, GTPBP10 / RFU, CNEP1R1 / Fold change vs veh, CNEP1R1 / RFU, BIVM-ERCC5 /// ERCC5 / Fold change vs veh, BIVM-ERCC5 /// ERCC5 / RFU, ILF3 / Fold change vs veh, ILF3 / RFU 11762660_at / Fold change /veh 11762660_at / RFU VCAN (11757783_s_at) / Fold change /veh VCAN (11757783_s_at) / RFU DDX43 (11728927_at) / Fold change /veh DDX43 (11728927_at) / RFU KRT8 (11758188_x_at) / Fold change /veh KRT8 (11758188_x_at) / RFU NKD1 (11759106_at) / Fold change /veh NKD1 (11759106_at) / RFU SRD5A1 (11742802_a_at) / Fold change /veh SRD5A1 (11742802_a_at) / RFU TPSAB1 /// TPSB2 (11721975_s_at) / Fold change /veh TPSAB1 /// TPSB2 (11721975_s_at) / RFU GSTM3 (11746129_a_at) / Fold change /veh GSTM3 (11746129_a_at) / RFU IL23R (11737362_x_at) / Fold change /veh IL23R (11737362_x_at) / RFU TMEM51 (11727254_a_at) / Fold change /veh TMEM51 (11727254_a_at) / RFU PIWIL2 (11732686_x_at) / Fold change /veh PIWIL2 (11732686_x_at) / RFU ORM1 (11744905_x_at) / Fold change /veh ORM1 (11744905_x_at) / RFU CCDC152 (11743942_at) / Fold change /veh CCDC152 (11743942_at) / RFU ECM1 (11717891_a_at) / Fold change /veh ECM1 (11717891_a_at) / RFU IL23R (11748794_a_at) / Fold change /veh IL23R (11748794_a_at) / RFU TNFAIP8L3 (11732012_x_at) / Fold change /veh TNFAIP8L3 (11732012_x_at) / RFU MBOAT4 (11741988_at) / Fold change /veh MBOAT4 (11741988_at) / RFU 11764193_at / Fold change /veh 11764193_at / RFU TMEM53 (11763286_at) / Fold change /veh TMEM53 (11763286_at) / RFU MAGEB2 (11727129_at) / Fold change /veh MAGEB2 (11727129_at) / RFU TMEM200A (11744735_a_at) / Fold change /veh TMEM200A (11744735_a_at) / RFU CCDC152 (11751479_a_at) / Fold change /veh CCDC152 (11751479_a_at) / RFU FAM211A (11726209_a_at) / Fold change /veh FAM211A (11726209_a_at) / RFU RGS16 (11746705_a_at) / Fold change /veh RGS16 (11746705_a_at) / RFU VCAN (11755009_s_at) / Fold change /veh VCAN (11755009_s_at) / RFU RHOB (11743442_s_at) / Fold change /veh RHOB (11743442_s_at) / RFU RGS16 (11720943_a_at) / Fold change /veh RGS16 (11720943_a_at) / RFU RGS16 (11720944_at) / Fold change /veh RGS16 (11720944_at) / RFU, VPS4B / Fold change vs veh, VPS4B / RFU, CREB1 / Fold change vs veh, CREB1 / RFU, DNAJC13 / Fold change vs veh, DNAJC13 / RFU, GNAQ / Fold change vs veh, GNAQ / RFU, CDK5R1 / Fold change vs veh, CDK5R1 / RFU, ZRANB3 / Fold change vs veh, ZRANB3 / RFU, CUL4A / Fold change vs veh, CUL4A / RFU, CCNY / Fold change vs veh, CCNY / RFU, UFL1 / Fold change vs veh, UFL1 / RFU, COG3 / Fold change vs veh, COG3 / RFU, DIAPH2 / Fold change vs veh, DIAPH2 / RFU, SKA2 / Fold change vs veh, SKA2 / RFU, AFF3 / Fold change vs veh, AFF3 / RFU, LMF1 / Fold change vs veh, LMF1 / RFU, IPO11 / Fold change vs veh, IPO11 / RFU, DFFB / Fold change vs veh, DFFB / RFU, FOXP1 / Fold change vs veh, FOXP1 / RFU, CARD8 / Fold change vs veh, CARD8 / RFU, STRN3 / Fold change vs veh, STRN3 / RFU, ADK / Fold change vs veh, ADK / RFU, RASSF2 / Fold change vs veh, RASSF2 / RFU, WIPF1 / Fold change vs veh, WIPF1 / RFU, LARP1B / Fold change vs veh, LARP1B / RFU, RASA1 / Fold change vs veh, RASA1 / RFU, RB1 / Fold change vs veh, RB1 / RFU, PPFIA1 / Fold change vs veh, PPFIA1 / RFU, MAT2A / Fold change vs veh, MAT2A / RFU, CCT5 / Fold change vs veh, CCT5 / RFU, WDR92 / Fold change vs veh, WDR92 / RFU, CUX1 / Fold change vs veh, CUX1 / RFU, TTC7A / Fold change vs veh, TTC7A / RFU, TMEM135 / Fold change vs veh, TMEM135 / RFU, DEPTOR / Fold change vs veh, DEPTOR / RFU, CPM / Fold change vs veh, CPM / RFU, DNAJB6 / Fold change vs veh, DNAJB6 / RFU, CACNA2D3 / Fold change vs veh, CACNA2D3 / RFU, DTX4 / Fold change vs veh, DTX4 / RFU, TFCP2 / Fold change vs veh, TFCP2 / RFU, GMCL1 /// GMCL1P1 / Fold change vs veh, GMCL1 /// GMCL1P1 / RFU, AEBP2 / Fold change vs veh, AEBP2 / RFU, SNHG1 /// SNORD22 /// SNORD25 /// SNORD26 /// SNORD27 /// SNORD28 /// SNORD29 /// SNORD31 / Fold change vs veh, SNHG1 /// SNORD22 /// SNORD25 /// SNORD26 /// SNORD27 /// SNORD28 /// SNORD29 /// SNORD31 / Fold change (Aza/veh), C12orf56 (ProbeSet 11735607_a_at) / Fold change (ACY-1035/veh), C12orf56 (ProbeSet 11735607_a_at) / Fold change (Aza/veh), FGFR1OP (ProbeSet 11751329_s_at) / Fold change (ACY-1035/veh), FGFR1OP (ProbeSet 11751329_s_at) / Fold change (Aza/veh), VPS36 (ProbeSet 11739960_a_at) / Fold change (ACY-1035/veh), VPS36 (ProbeSet 11739960_a_at) / RFU SYPL1 (11715823_x_at) / Fold change /veh SYPL1 (11715823_x_at) / RFU IGFBP7 (11715501_s_at) / Fold change /veh IGFBP7 (11715501_s_at) / RFU REEP3 (11722064_at) / Fold change /veh REEP3 (11722064_at) / RFU IGLL1 (11728026_x_at) / Fold change /veh IGLL1 (11728026_x_at): dose or concentration left out as unconfirmed. The note with it: MV-4-11 cells, 48 hours.

Take `Nc1ncn([C@@H]2O[C@H](CO)[C@@H](O)[C@H]2O)c(=O)n1` [azacitidine]: the “RFU 11764193_at” value was found to be 40.50 RFU.
